Experimental data published in US9096591B2, “Tetracyclic compounds” (Medivation Technologies, Inc., priority 2007, dated 2015).
Read-outs that look alike come from different tables or passages of the source.

Columns and labels:
[1] = system: synaptosomes of cortex of rat brain; experiment: Glutamate-induced 45Ca2+ uptake into synaptosomes; format: biochemical, Wistar rats; details: for glutamate-induced 45Ca2+ uptake into synaptosomes of rat cortex, % of control: 50-100 μM; for % Ca of control (control-100%), glutamate-induced 45Ca2+ uptake into synaptosomes: rat cortex synaptosomes
Description: Synaptosomes were obtained from cerebral cortex of newborn (9-10 days) Wistar rats using standard Hajos method. The brain was homogenized with 10 volumes of cooled 0.32 M sucrose at 900 rpm. The homogenate was centrifuged at 1500 g for 10 min. and the resulted supernatant was centrifuged at 10000 g for 20 min. The radioactive label was accumulated by suspension of the synaptosomal P2-fraction in the incubation buffer A having the following composition: 132 mM NaCl, 5 mM KCl, 5 mM HEPES, 10 mM glucose, pH 7.4 (protein concentration of approximately 1.5-2 mg/ml). The mixture was further incubated for 5 min with 200 μM glutamate at 37° C. and then ^45Ca^2+ uptake was stopped by filtration through GF/B filters (Whatman, England) followed by three washes with cold buffer B (145 mM KCl, 10 mM Tris, 5.4 mM Trilon B, pH 7.4). The radioactivity probes were analyzed by fluid scintillation beta-analyzer (TriCarb, Perkin Elmer). All tests were performed in three parallel trials in 2-3 independent experiments. The amount of ^45Ca^2+ uptake was estimated by calculating the difference of radioactive label during the stimulation with glutamate and without the stimulation with agonist.
Specific ^45Ca^2+ uptake was estimated using the following equation: K(43/21)=[(Ca4−Ca3)/(Ca2−Ca1)]100%, where
Ca1—^45Ca^2+ uptake for the Control (without glutamate and the compound tested),
[…] glutamate-induced ^45Ca^2+ uptake (glutamate only),
Ca3—^45Ca^2+ uptake in the presence of the compound tested (without glutamate),
Ca4—^45Ca^2+ uptake in the presence of glutamate and the testing compound.
Statistical analysis of the results was performed using Student's t-test.

AMPA receptors = experiment: AMPA-receptor activity: kainic acid-induced currents in Purkinje cells (patch-clamp); format: cell-based, rat; details: mean±SEM, control=100%
Description: The analysis of effects of the testing compounds on AMPA receptors was carried out using an electrophysiological patch-clamp method in whole cell configuration (Hamill et al., 1980) of the Purkinje cell fresh isolated from the cerebellum of juvenile rats (12-15 days). The isolation was carried out using a modified method (Kaneda et al., 1988) in which cerebral 400-600 μm sections were incubated for 60 min in the temperature controlled chamber in 10 mL of buffer solution (150 mM NaCl, 5 mM KCl, 2 mM CaCl2, 2 mM MgSO4.7H2O, 10 mM HEPES, 15 mM glucose, pH 7.42). The incubation solution was exchanged with the incubation buffer with pronase (2 mg/mL) and collagenase (1 mg/mL) for 70 min. After a 20 min wash with the original buffer, all sections were placed into the Petri dish and were separated using a Pasteur pipette. All solutions were constantly aerated with 100% O2 at 34° C. The composition of extracellular saline was: 150 mM NaCl, 5 mM KCl, 2.6 mM CaCl2, 2 mM MgSO4.7H2O, 10 mM HEPES, 15 mM glucose, pH 7.36. The transmembrane current was induced as a result of the activation of AMPA receptors by a superfusion with the agonist solution (kainic acid). The currents were measured using borosilicate microelectrodes (resistance […]) filled with 100 mM KCl, 11 mM EGTA, 1 mM CaCl2, 1 mM MgCl2, 10 mM HEPES, 5 mM ATP, pH 7.2. The currents were registered using EPC-9 (HEKA, Germany) and recorded with Pulse software package which was also purchased from HEKA. The analysis of observations was carried out using Pulsefit (HEKA, Germany) and the statistical significance was analyzed using a Student's T-test criteria. Data are presented as mean±SEM in % of control values.
Compounds of the invention were tested in 3-5 neurons. Every concentration of compound was repeated three-four times in every neuron. Data are presented as mean±SEM in % of Control values (Table 13+14, FIGS. 8-12). Control value=100%.

rat brain mitochondria [2] = experiment: Ca2+-induced swelling of mitochondria (MPT pore opening); format: biochemical, Wistar rats; details: for A540 increase in mitochondrial suspension after addition of 100 μM of compound: 100 μM compound
Description: Rat liver and brain mitochondria were prepared from male Wistar rats. The rats were euthanized in a CO2 chamber followed by decapitation the procedure being in compliance with the Guidelines for Animal Experiments at IPAC RAS. […]
Brain mitochondria were isolated from the pooled forebrains of two rats. The modified method of Sims was used to isolate and purify brain mitochondria in a Percoll gradient. The brain was homogenized in “buffer A” (225 mM mannitol, 75 mM sucrose, 5 mM HEPES, 1 mM EGTA, pH 7.4 [KOH]) and centrifuged for 10 min at 1300 g. The supernatant was centrifuged for 10 min at 10000 g, and then the pellet was suspended in 15% Percoll and layered on a discontinuous gradient consisting of 40 and 23% Percoll, respectively, which was then centrifuged for 10 min at 30000 g without using brakes. The mitochondria were collected from the interface of the lower two layers and after resuspension in “buffer A”, the suspension was centrifuged at 16600 g for 10 min, then the pellet was resuspended in “buffer A”, BSA (10 mg/mL) was added to bind free fatty acids; and the suspensions was centrifuged again at 6300 g for 10 min. Following centrifugation the pelleted mitochondria were re-suspended in isolation medium without EGTA to achieve a protein concentration of 15-20 mg/ml.
Mitochondrial swelling caused by influx of solutes through open PT pores results in an increase in light transmission (i.e., a reduced turbidity). This turbidity change offers a convenient and frequently used assay of the MPT by measurement of absorbance in mitochondrial suspensions. In the present study, the MPT induced by Ca^2+ and inorganic phosphate (Ca/Pi) was monitored by absorbance changes at 540 nm in a cuvette in a Beckman DU 640 spectrophotometer in 1 ml of buffer A plus 0.8 μM rotenone, 5 mM succinate, 1 mM KH2PO4 and 0.5 mg or 0.2 mg protein of isolated liver or brain mitochondria, accordingly. Reaction was started by the addition of triggering agent (Ca^2+). Pre-treatment and reaction were performed at 30° C. Swelling rate was quantified as ΔA540/min/mg, calculated, in all cases, from a tangent to the steepest portion of the plot of A540 versus time.
Ca^2+-induced Swelling of mitochondria was used as the primary screening test for compounds influence on MPT pore opening. […] But the inhibition of swelling may be connected not only with direct inhibition of MPT pore opening but also with the impairment of respiratory function of mitochondria and with the compounds action on calcium transport into mitochondria. For the primary estimation of these possibilities the mitochondrial membrane potential and calcium retention capacity of mitochondria were measured. […] New synthesized compounds (except C-14 and C-43) alone induced an increase of brain mitochondria suspension turbidity. The mechanism of such effect needs additional investigations.

rat brain mitochondria [3] = experiment: Mitochondrial membrane potential (safranine test); format: biochemical, Wistar rats; details: at concentrations up to 100 mkM
Description: The same experimental conditions were used for the assessment of alterations of the mitochondrial membrane potential, except that safranine was included in incubation medium at a final concentration of 10 mkM and succinate was added before the compounds of the invention. This concentration of safranine was determined before hand as the optimal compromise between signal/baseline ratio and interference of safranine itself with swelling induced by Ca/Pi (safranine tended to enhance Ca/Pi-induced swelling at concentrations above 20 mkM). Changes in the status of the mPT pore were assessed spectrophotometrically at 554 and 524 nm in a cuvette in a Beckman DU 640 spectrophotometer. A554-524 represents the characteristics of mitochondrial potential and A554-characteristics of mitochondrial swelling.

[4] = concentration reducing to 50% the initial rate of turbidity fall after calcium addition, read-out: IC50, decrease of calcium-induced swelling of brain mitochondria
[5] = read-out: IC50, Ca2+-induced (25-50 μM) swelling of brain mitochondria, rat brain mitochondria, Ca2+ 25-50 μM

| SMILES | inhibition of glutamate-induced 45Ca2+ uptake into synaptosomes ([1]; 0.5 μM) [%] | glutamate-induced 45Ca2+ uptake into synaptosomes of rat cortex, % of control [1] [%] | % Ca of control (control-100%), glutamate-induced 45Ca2+ uptake into synaptosomes ([1]; compound 0.1 μM) [%] | % Ca of control (control-100%), glutamate-induced 45Ca2+ uptake into synaptosomes ([1]; compound 0.5 μM) [%] | % Ca of control (control-100%), glutamate-induced 45Ca2+ uptake into synaptosomes ([1]; compound 1 μM) [%] | % Ca of control (control-100%), glutamate-induced 45Ca2+ uptake into synaptosomes ([1]; compound 5 μM) [%] | % Ca of control (control-100%), glutamate-induced 45Ca2+ uptake into synaptosomes ([1]; compound 10 μM) [%] | % Ca of control (control-100%), glutamate-induced 45Ca2+ uptake into synaptosomes ([1]; compound 50 μM) [%] | % Ca of control (control-100%), glutamate-induced 45Ca2+ uptake into synaptosomes ([1]; compound 100 μM) [%] | kainic acid-induced currents in Purkinje cells, % of Control values (AMPA receptors; compound 10^−5 M) [%] | kainic acid-induced currents in Purkinje cells, % of Control values (AMPA receptors; compound 10^−6 M) [%] | kainic acid-induced currents in Purkinje cells, % of Control values (AMPA receptors; compound 10^−7 M) [%] | kainic acid-induced currents in Purkinje cells, % of Control values (AMPA receptors; compound 10^−8 M) [%] | kainic acid-induced currents in Purkinje cells, % of Control values (AMPA receptors; compound 10^−9 M) [%] | IC50 (rat brain mitochondria [2]; [4]) [µM] | A540 increase in mitochondrial suspension after addition of 100 μM of compound (rat brain mitochondria [2]; rat brain mitochondria) [rel.units] | IC50 (rat brain mitochondria [2]; [5]) [µM] | depolarization of brain mitochondria (rat brain mitochondria [3]) | concentration at which glutamate-induced 45Ca2+ uptake into synaptosomes was not affected [1] [µM] | kainic acid-induced currents in Purkinje cells, % of Control values (AMPA receptors; compound 3 × 10^−5 M) [%] |
| --- | --- | --- | --- | --- | --- | --- | --- | --- | --- | --- | --- | --- | --- | --- | --- | --- | --- | --- | --- | --- |
| CN1CCc2c(c3ccccc3n2CCc2nc(-c3ccncc3)cs2)C1 [Compound C1-4] | ~12.6 | ~131 | 99.1 ± 2.5 | 87.4 ± 3.7 | 96.2 ± 5.0 | 94.9 ± 5.7 | 94.3 ± 2.7 | 112.7 ± 10.1 | 131.5 ± 0.1 | 100 ± 9 | 109 ± 12 | 114 ± 5 | 119 ± 6 | 129 ± 9 | ~94 | 1 | 93.9 ± 16.4 | No depolarization |  |  |
| CN1CCc2c(c3ccccc3n2CCc2noc(-c3ccncc3)n2)C1 [Compound C4-3] |  | ~126 | 93.2 ± 3.0 | 92.1 ± 3.3 | 101.0 ± 1.0 | 93.7 ± 6.8 | 94.7 ± 6.9 | 117.9 ± 6.0 | 125.6 ± 3.9 | 100 ± 6 | 139 ± 11 | 149 ± 15 | 145 ± 12 | 100 ± 3 | ~76 | 1 | 76 ± 12 | No depolarization | 0.1 to 50 | 80 ± 10 |
